Source: PMC8894198, “Biosynthetic Microcin J25 Exerts Strong Antibacterial, Anti-Inflammatory Activities, Low Cytotoxicity Without Increasing Drug-Resistance to Bacteria Target” (Frontiers in Immunology, 2022)
Values after ≈ are worked out from the molar mass of the structure shown. Where a SMILES comes first, the peptide text is derived from it. Bridges are numbered along the chain shown (N, C = ends).

Columns and labels:
[1] = system: RAW 264.7 cells; assay: LPS-induced inflammation in macrophages; type: cell-based, mouse
Procedure: The mouse macrophage cell line RAW 264.7 was obtained in our lab and stored in liquid nitrogen. Cells were cultured in DMEM supplemented with 1% antibiotics (100 U/mL penicillin and 100 µg/mL streptomycin) with 20% FBS at 37°C and 5% CO2. Cells were transferred and inoculated in 12-well plates (1 × 10^4 cells/well) and cultured for 24 h.
RAW 264.7 cells (approximately 2 × 10^4 cells/well) were cultured with 1 µg/mL E. coli LPS for 3 h at 37°C in the absence (control) or presence of 1 μg/mL MccJ25 at 5% CO2. The cells and cell culture supernatants were then collected. Culture supernatant mixed with Griess reagent (1:1) and incubated for 15 min at room temperature. A microplate reader was used to measure […] (NO) at 540 nm. The changes in induced NO levels were clarified based on the comparison between the values of the treated and control groups. Each experiment was repeated three times.
The concentrations of tumor necrosis factor-α (TNF-α), interleukin-6 (IL-6), IL-4, interferon (IFN)-γ, and nitric oxide (NO) in serum were measured. In addition, TNF-α and NO levels were also measured in the supernatant of RAW264.7 cells. ELISA was performed using a commercial ELISA kit (eBioscience, San Diego, USA). LPS levels in plasma were analyzed using the QCL-1000 kit (Xiamen, China) based on the manufacturer’s standards. On the day of sacrifice, eyes were extracted with ethylenediaminetetraacetic acid (EDTA), and blood was collected into clean test tubes. Peripheral hemograms and white blood cells (WBCs) were analyzed using a Coulter LH755 hematology analyzer. The levels of serum D-lactate were measured using ELISA kit (Jiancheng, Nanjing, China) according to the manufacturer’s protocols.
The extent and mRNA expression levels of TNF-α, IL-6, IL-10, IL-1β, IFN-γ, and TLR4, and NF-κB in each body part of the jejunum, ileum, colon, and spleen and in RAW264.7 cells were clarified by RT–PCR as previously described ([31]). Primers for TNF-α, IL-6, IL-10, IL-1β, IFN-γ, TLR4, and NF-κB are described in Table S1 . […] Combined with gel electrophoresis and a NanoDrop 2000 spectrophotometer (Thermo Fisher Scientific, Wilmington, DE), the quality and quantity of total RNA were determined. […]
Frozen tissue samples and fresh cells were homogenized in RIPA lysis buffer containing protease inhibitors (Applygen, Beijing, China). Protein levels were determined using a BCA protein assay kit (Thermo Fisher Scientific, Rockford, IL). […] Chemofluorescence was detected using the ImageQuant LAS 4000 mini system (GE Healthcare Biosciences AB, Inc., Sweden) with Western Blot Luminance Reagent (Applygen, Beijing, China), and the membranes were cleaned with an ImageQuant TL (GE Healthcare Life Science) gel imaging system for quantification.

[2] = system: E. coli BRO 528; assay: MIC/MBC, clinical isolate resistant to colistin sulfate, lincomycin and tilmicosin; type: cell-based; conditions: source broiler stool
Procedure: (§1) The minimum inhibitory concentration (MIC) refers to the lowest concentration that can produce a significant hindrance to bacterial growth in a drug sensitivity test by adopting a broth dilution, with certain refinements and modifications based on the previous description ([25], [26]). In short, MccJ25 was dissolved in sterilized distilled water (SDW), serial 2-fold dilutions were prepared in Mueller-Hinton broth (MHB) through a 96-well microtiter plate, and the final concentration of MccJ25 was maintained in the range of 0.003125 to 256 μg/mL. Then, 2 μL of standard and clinically relevant overnight broth cultures of bacteria were inoculated into each well at a concentration of 5 × 10^6 CFU/mL. Microtiter plates were incubated at 37°C for one full day. Two groups were set up: positive (medium with inoculum) and negative (medium only) controls. The minimum bactericidal concentration (MBC) was measured in LB medium and refers to the first drug dilution value at which the initial bacterial concentration was reduced by 99.99%. The final analysis was determined by the results of three replicated and independent experiments. To further assess and clarify the antimicrobial activity of MccJ25, the protective ability against E. coli adhesion, live/dead assay, and killing curve were performed, the detailed methods were provided in Supplementary Materials .

[3] = system: E. coli SWI 531; assay: as above; type: cell-based; conditions: source pig tissue
Procedure: as §1

[4] = system: E. coli SWI 541; assay: as above; type: cell-based; conditions: source pig stool
Procedure: as §1

[5] = system: E. coli SWI 441; assay: as above; type: cell-based; conditions: source pig stool
Procedure: as §1

[6] = system: Salmonella enteritidis CMCC50336; assay: MIC/MBC broth dilution, standard strain; type: cell-based
Procedure: as §1

[7] = system: Shigella flexneri CMCC51571; assay: MIC/MBC broth dilution, standard strain; type: cell-based; conditions: LB medium, 99.99% reduction; three independent experiments
Procedure: as §1

[8] = system: E. coli 1499; assay: MIC/MBC broth dilution, standard strain; type: cell-based
Procedure: as §1

[9] = system: E. coli O111:B4 LPS-challenged BALB/c mice; assay: LPS-challenged mice experiment (septicemia model); type: in vivo; conditions: LPS 15 mg/kg i.p.; MccJ25 4.55 and 9.1 mg/kg BW; followed 72 h
[10] = LB medium, 99.99% reduction, three independent experiments
[11] = broth dilution in MHB, 37°C, three independent experiments
[12] = broth dilution in MHB, 37°C, one day, three independent experiments

CC[C@H](C)[C@H](NC(=O)CNC(=O)[C@@H](NC(=O)[C@H](Cc1ccccc1)NC(=O)[C@H](Cc1ccc(O)cc1)NC(=O)[C@@H]1CCC(=O)NCC(=O)NCC(=O)N[C@@H](C)C(=O)NCC(=O)N[C@@H](Cc2c[nH]cn2)C(=O)N[C@@H](C(C)C)C(=O)N2CCC[C@H]2C(=O)N1)C(C)C)C(=O)NCC(=O)N[C@H](C(=O)N1CCC[C@H]1C(=O)N[C@H](C(=O)N[C@@H](CO)C(=O)N[C@@H](Cc1ccccc1)C(=O)N[C@@H](Cc1ccc(O)cc1)C(=O)NCC(=O)O)[C@@H](C)CC)[C@@H](C)O [MccJ25, microcin J25] (GGAGHVPEYFVGIGTPISFYG-OH; lactam N-8 (inferred); C-terminus assumed)
LPS-stimulated expression of TNF-α and TLR-4 (RT-PCR) ([1]; LPS 1 µg/mL, MccJ25 1 µg/mL): this stimulatory effect was inhibited | LPS-induced TNF-α and NO secretion ([1]; LPS 1 µg/mL, MccJ25 1 µg/mL, 3 h): this increase in secretion was alleviated | MyD88, TLR4, TNF-α and IL-6 protein expression ([1]; western blot, after LPS challenge): sharply decreased | p-NF-κB and MyD88 protein expression ([1]; western blot, after LPS challenge for 3 h): significantly decreased | MBC [2, 10]: 2.000 µg/mL (≈ 0.949 µM) | MIC [2, 11]: 0.500 µg/mL (≈ 0.237 µM) | MIC/MBC ([2]; ratio): 0.250 | MBC [3, 10]: 0.500 µg/mL (≈ 0.237 µM) | MIC [3, 11]: 0.060 µg/mL (≈ 0.0285 µM) | MIC/MBC ([3]; ratio): 0.120 | MBC [4, 10]: 2.000 µg/mL (≈ 0.949 µM) | MIC [4, 11]: 0.500 µg/mL (≈ 0.237 µM) | MIC/MBC ([4]; ratio): 0.250 | MBC [5, 10]: 0.500 µg/mL (≈ 0.237 µM) | MIC [5, 11]: 0.060 µg/mL (≈ 0.0285 µM) | MIC/MBC ([5]; ratio): 0.120 | MBC [6, 10]: 4.000 µg/mL (≈ 1.9 µM) | MIC [6, 12]: 2.000 µg/mL (≈ 0.949 µM) | MIC/MBC ([6]; ratio): 0.500 | MBC [7]: 0.500 µg/mL (≈ 0.237 µM) | MBC [8, 10]: 1.000 µg/mL (≈ 0.475 µM) | MIC [8, 12]: 0.400 µg/mL (≈ 0.19 µM) | MIC/MBC ([8]; ratio): 0.400 | survival rate [9]: increased
